What all share (type): in vivo
The subject of experiment [1] is Echinochloa crus-gali (ECHCG). Description: Pre-emergence herbicidal glasshouse test. As to conditions: 250 g/ha, sprayed after one day cultivation, evaluated after 13 days. As to the method:
(§1) Seeds of a variety of test species are sown in standard soil in pots Amaranthus pa/meri (AMAPA), Amaranthus retoflexus (AMARE), Echinochloa crus-gali (ECHCG), Ipomoea hederacea (IPOHE), Setaria faberi (SETFA). After cultivation for one day (pre-emergence) or after 8 days cultivation (post-emergence) under controlled conditions in a glasshouse (at 24/16° C., day/night; 14 hours light; 65% humidity), the plants are sprayed with an aqueous spray solution derived from the formulation of the technical active ingredient in acetone/water (50:50) solution containing 0.5% Tween 20 (polyoxyethelyene sorbitan monolaurate, CAS RN 9005-64-5). Compounds are applied at 250 g/ha unless otherwise stated. The test plants are then grown in a glasshouse under controlled conditions in a glasshouse (at 24/16° C., day/night; 14 hours light; 65% humidity) and watered twice daily. After 13 days for pre and post-emergence, the test is evaluated for the percentage damage caused to the plant. The biological activities are shown in the following table on a five-point scale (5=81-100%; 4=61-80%; 3=41-60%; 2=21-40%; 1=0-20%).

Experiment [2] concerns Amaranthus pa/meri (AMAPA). In words: Pre-emergence herbicidal glasshouse test. As to conditions: 250 g/ha, sprayed after one day cultivation, evaluated after 13 days. As to the method:
as §1

For experiment [3], the system named is Ipomoea hederacea (IPOHE). In words: Pre-emergence herbicidal glasshouse test. As to conditions: 250 g/ha, sprayed after one day cultivation, evaluated after 13 days. As to the method:
as §1

In experiment [4] the test system is Amaranthus retoflexus (AMARE). In words: Pre-emergence herbicidal glasshouse test. To be noted: 250 g/ha, sprayed after one day cultivation, evaluated after 13 days. As to the method:
as §1

Experiment [5] relates to Echinochloa crus-gali (ECHCG). Description: Post-emergence herbicidal glasshouse test. To be noted: 250 g/ha, sprayed after 8 days cultivation, evaluated after 13 days. As to the method: as §1
For experiment [6], the system named is Amaranthus pa/meri (AMAPA). In words: Post-emergence herbicidal glasshouse test. To be noted: 250 g/ha, sprayed after 8 days cultivation, evaluated after 13 days. As to the method: as §1
The test system of experiment [7] is Ipomoea hederacea (IPOHE). Description: Post-emergence herbicidal glasshouse test. As to conditions: 250 g/ha, sprayed after 8 days cultivation, evaluated after 13 days. As to the method:
as §1

For experiment [8], the system named is Amaranthus retoflexus (AMARE). Description: Post-emergence herbicidal glasshouse test. To be noted: 250 g/ha, sprayed after 8 days cultivation, evaluated after 13 days. As to the method: as §1

SMILES strings stand for the structures.

From US20260035359A1, “HERBICIDAL IMIDAZOLE COMPOUNDS” (SYNGENTA CROP PROTECTION AG, priority 2022, published 2026) come the findings set out here.

Turning to `CCCCc1nc(C=NOC)cn1Cc1ncc(Cl)cn1` (single isomer, unassigned) [Compound 1.076, 1-[2-butyl-1-[(5-chloropyrimidin-2-yl)methyl]imidazol-4-yl]-N-methoxy-methanimine], the “percentage damage caused to the plant, ECHCG” value in experiment [1] and in experiment [5] was 1 (1=0-20%) in each case. The “percentage damage caused to the plant, AMAPA” value in experiment [2] and in experiment [6] was 1 (1=0-20%) in each case. The “percentage damage caused to the plant, IPOHE” value in experiment [3] and in experiment [7] was 1 (1=0-20%) in each case. Further, the “percentage damage caused to the plant, AMARE” value in experiment [4] and in experiment [8] was 1 (1=0-20%) throughout.
On to `CCCCCc1nc(C(F)(F)F)cn1Cc1ncc(C)cn1` [Compound 1.016], for which the “percentage damage caused to the plant, ECHCG” value in experiment [1] and in experiment [5] was 1 (1=0-20%) each time. Further, the figures for the “percentage damage caused to the plant, AMAPA” value in experiment [2] and in experiment [6] were 5 (5=81-100%) and 1 (1=0-20%), respectively. For the same compound, the “percentage damage caused to the plant, IPOHE” value in experiment [3] and in experiment [7] was 2 (2=21-40%) in each case. Besides, the “percentage damage caused to the plant, AMARE” value in experiment [4] is listed as 5 (5=81-100%); in experiment [8], 2 (2=21-40%).
Regarding `CCCCc1nc(C(F)F)cn1Cc1ncc(Cl)cn1` [Compound 1.053, 2-[[2-butyl-4-(difluoromethyl)imidazol-1-yl]methyl]-5-chloro-pyrimidine], the “percentage damage caused to the plant, ECHCG” value in experiment [1] and in experiment [5] was 1 (1=0-20%) in each case. Besides, the “percentage damage caused to the plant, AMAPA” value in experiment [2] and in experiment [6] was 1 (1=0-20%) in each case. Moreover, the “percentage damage caused to the plant, IPOHE” value in experiment [3] and in experiment [7] was 1 (1=0-20%) in each case. In addition, the “percentage damage caused to the plant, AMARE” value in experiment [4] and in experiment [8] was 1 (1=0-20%) throughout.
For `FC(F)(F)c1cn(Cc2ncc(Cl)cn2)c(CC2CCOCC2)n1` [Compound 1.075], the “percentage damage caused to the plant, ECHCG” value in experiment [1] and in experiment [5] was 4 (4=61-80%) throughout. For the same compound, the results for the “percentage damage caused to the plant, AMAPA” value in experiment [2] and in experiment [6] were 5 (5=81-100%) and 4 (4=61-80%), respectively. For the same compound, the “percentage damage caused to the plant, IPOHE” value was 5 (5=81-100%) in experiment [3] and 4 (4=61-80%) in experiment [7]. For the same compound, the entries for the “percentage damage caused to the plant, AMARE” value in experiment [4] and in experiment [8] were 5 (5=81-100%) and 4 (4=61-80%), respectively.
Take `FC(F)(F)c1cn(Cc2ncc(Cl)cn2)c(CC2CCOC2)n1` (stereo not shown) [Compound 1.074]: the “percentage damage caused to the plant, ECHCG” value in experiment [1] and in experiment [5] was 3 (3=41-60%) throughout. The “percentage damage caused to the plant, AMAPA” value in experiment [2] is 5 (5=81-100%); in experiment [6] it was 4 (4=61-80%). The “percentage damage caused to the plant, IPOHE” value is listed as 5 (5=81-100%) in experiment [3] and 4 (4=61-80%) in experiment [7]. Further, the “percentage damage caused to the plant, AMARE” value was 5 (5=81-100%) in experiment [4] and 4 (4=61-80%) in experiment [8].
On to `CON=CCCc1nc(C(F)(F)F)cn1Cc1ncc(Cl)cn1` (single isomer, unassigned) [Compound 1.007, 3-[1-[(5-chloropyrimidin-2-yl)methyl]-4-(trifluoromethyl)-imidazol-2-yl]-N-methoxy-propan-1-imine], for which the “percentage damage caused to the plant, ECHCG” value in experiment [1] is on record as 2 (2=21-40%); in experiment [5], 1 (1=0-20%). For the same compound, the “percentage damage caused to the plant, AMAPA” value in experiment [2] is 5 (5=81-100%); in experiment [6], 4 (4=61-80%). The “percentage damage caused to the plant, IPOHE” value is reported as 5 (5=81-100%) in experiment [3] and 3 (3=41-60%) in experiment [7]. The entries for the “percentage damage caused to the plant, AMARE” value in experiment [4] and in experiment [8] were 5 (5=81-100%) and 4 (4=61-80%), respectively.
Consider `O=CCCc1nc(C(F)(F)F)cn1Cc1ncc(Cl)cn1` [Compound 1.013, 3-[1-[(5-chloropyrimidin-2-yl)methyl]-4-(trifluoromethyl)imidazol-2-yl]propanal], for which the “percentage damage caused to the plant, ECHCG” value in experiment [1] and in experiment [5] was 1 (1=0-20%) each time. Also, the “percentage damage caused to the plant, AMAPA” value is listed as 2 (2=21-40%) in experiment [2] and 1 (1=0-20%) in experiment [6]. The “percentage damage caused to the plant, IPOHE” value in experiment [3] and in experiment [7] was 1 (1=0-20%) in each case. The “percentage damage caused to the plant, AMARE” value is 5 (5=81-100%) in experiment [4] and 1 (1=0-20%) in experiment [8].
Turning to `COCCc1nc(C(F)(F)F)cn1Cc1ncc(Cl)cn1` [Compound 1.018], the “percentage damage caused to the plant, ECHCG” value in experiment [1] and in experiment [5] was 1 (1=0-20%) in each case. Further, the “percentage damage caused to the plant, AMAPA” value in experiment [2] is given as 4 (4=61-80%); in experiment [6], 2 (2=21-40%). Further, the “percentage damage caused to the plant, IPOHE” value is on record as 4 (4=61-80%) in experiment [3] and 3 (3=41-60%) in experiment [7]. Also, the results for the “percentage damage caused to the plant, AMARE” value in experiment [4] and in experiment [8] were 5 (5=81-100%) and 2 (2=21-40%), respectively.
`CCCc1nc(C(F)(F)F)cn1Cc1ncc(Cl)cn1` [Compound 1.042]: the “percentage damage caused to the plant, ECHCG” value in experiment [1] and in experiment [5] was 1 (1=0-20%) throughout. Further, the figures for the “percentage damage caused to the plant, AMAPA” value in experiment [2] and in experiment [6] were 4 (4=61-80%) and 3 (3=41-60%), respectively. The “percentage damage caused to the plant, IPOHE” value in experiment [3] is 4 (4=61-80%); in experiment [7], 3 (3=41-60%). The “percentage damage caused to the plant, AMARE” value in experiment [4] is given as 4 (4=61-80%); in experiment [8], 3 (3=41-60%).
Turning to `FC(F)CCc1nc(C(F)(F)F)cn1Cc1ncc(Cl)cn1` [Compound 1.010, 5-chloro-2-[[2-(3,3-difluoropropyl)-4-(trifluoromethyl)-imidazol-1-yl]methyl]-pyrimidine], the “percentage damage caused to the plant, ECHCG” value in experiment [1] and in experiment [5] was 4 (4=61-80%) each time. In addition, the “percentage damage caused to the plant, AMAPA” value in experiment [2] is 5 (5=81-100%); in experiment [6], 4 (4=61-80%). The figures for the “percentage damage caused to the plant, IPOHE” value in experiment [3] and in experiment [7] were 5 (5=81-100%) and 4 (4=61-80%), respectively. Besides, the “percentage damage caused to the plant, AMARE” value in experiment [4] is on record as 5 (5=81-100%); in experiment [8] it was 4 (4=61-80%).
Take `FC(F)COCCc1nc(C(F)(F)F)cn1Cc1ncc(Cl)cn1` [Compound 1.017]: the “percentage damage caused to the plant, ECHCG” value in experiment [1] is reported as 5 (5=81-100%); in experiment [5] it was 3 (3=41-60%). Moreover, the “percentage damage caused to the plant, AMAPA” value in experiment [2] is recorded as 5 (5=81-100%); in experiment [6], 4 (4=61-80%). The entries for the “percentage damage caused to the plant, IPOHE” value in experiment [3] and in experiment [7] were 5 (5=81-100%) and 4 (4=61-80%), respectively. Moreover, the “percentage damage caused to the plant, AMARE” value in experiment [4] is recorded as 5 (5=81-100%); in experiment [8] it was 4 (4=61-80%).
On to `N#CCCc1nc(C(F)(F)F)cn1Cc1ncc(Cl)cn1` [Compound 1.029], for which the “percentage damage caused to the plant, ECHCG” value in experiment [1] was 2 (2=21-40%); in experiment [5], 1 (1=0-20%). The “percentage damage caused to the plant, AMAPA” value in experiment [2] is 5 (5=81-100%); in experiment [6], 4 (4=61-80%). Further, the entries for the “percentage damage caused to the plant, IPOHE” value in experiment [3] and in experiment [7] were 5 (5=81-100%) and 3 (3=41-60%), respectively. Also, the “percentage damage caused to the plant, AMARE” value in experiment [4] was 5 (5=81-100%); in experiment [8] it was 4 (4=61-80%).
As for `CCCCc1nc(I)cn1Cc1ncc(Cl)cn1` [Compound 1.079], the “percentage damage caused to the plant, ECHCG” value in experiment [1] and in experiment [5] was 1 (1=0-20%) in each case. The “percentage damage caused to the plant, AMAPA” value in experiment [2] and in experiment [6] was 1 (1=0-20%) each time. The “percentage damage caused to the plant, AMARE” value in experiment [4] and in experiment [8] was 1 (1=0-20%) throughout. The “percentage damage caused to the plant, IPOHE” value in experiment [7] is recorded as 1 (1=0-20%).
